Tests used:
[1] = system: A2780 cells; experiment: Northern analysis of stathmin mRNA after adriamycin treatment; type: cell-based, human; conditions: A2780, adriamycin, 12 hours, data not shown
Experimental: (§1) Sub-confluent cultures of MCF 7 and A2780 cells were treated with 100 nM trichostatin A (TSA, Sigma)for 2 hours, followed by incubation with 0.5 ug/ml adriamycin (doxorubicin, Sigma) for the indicated timepoints. Va15 cells grown at 39 degrees were treated with 100 nM TSA for two hours, followed by temperature shift to 32 degrees for 12 hours. p53 induction was monitored by western analysis of 100 ug protein as described (Murphy et al., Genes & Devel. 10:2971–2980, 1996), using 0.1ug/ml DO-1 (Ab-6, Calbiochem) or 421 (Ab-1, Calbiochem). MDM2 induction was monitored using the monoclonal antibody 2A10, kindly provided by Arnold Levine (Rockefeller University). For UV treatments, cells were irradiated with 4 J/m2 of UV-C with a Spectroline X series ultraviolet lamp, and output was monitored with a traceable UV light meter (Fisher Scientific). For ALLN treatment, MCF-7 cells were treated with 50 uM ALLN (calpain I inhibitor, Sigma) made in DMSO (dimethyl sulfoxide, Sigma) or with DMSO alone for 2 hours prior to harvesting.
(§2) Total RNA was isolated from cells using CsC1 purification (Murphy et al., Genes & Devel. 10:2971–2980, 1996) or using Trizol, as per the manufacturer (Gibco/BRL). Northern analyses were performed as described (Murphy et al., Genes & Devel. 10:2971–2980, 1996). Probes for Northerns were radio labeled using random primers (Prime-It-II, Stratagene) and α^32P dCTP (NEN). Autoradiographs were quantitated using NIH image software. The average values from three independent experiments were plotted onto bar graphs following normalization to GAPDH.
(§3) To extend these observations, the human tumor derived cell lines MCF7 (breast carcinoma)and A2780 (ovarian carcinoma) were analyzed following treatment with adriamycin to activate the endogenous, wild type p53 protein. Because of difficulties detecting human Map4 message, we analyzed the mRNA levels of stathmin (also called oncoprotein 18). We recently identified stathmin as a p53-repressed gene. A time course of treatment of MCF-7 cells with the DNA-damaging agent adriamycin (doxorubicin, DOX) results in approximately 30% reduction of stathmin RNA levels after 8 hours and 75% reduction after 24 hours. We chose to focus further on the 12 hour timepoint of adriamycin treatment, where 50% repression of stathmin was evident, in order to limit the toxicity sometimes associated with TSA (Yoshida et al., J Biol Chem 265:17174–17179, 1990). […] The results of three independent experiments indicate that the repression of stathmin expression evident after 12 hours of adriamycin treatment is completely abrogated by incubation with TSA. In contrast, neither the post-translational stabilization of p53 by adriamycin (DOX) nor the induction of the p53 response genes mdm2 and p21/waf1 were affected by TSA. […] We have performed identical experiments in A2780 cells (ovarian carcinoma, wt p53).

[2] = system: MCF-7 cells; experiment: as above; type: cell-based, human; conditions: MCF-7, adriamycin 0.5 ug/ml
Experimental: as §1, §2, §3

## COc1cccc2c1C(=O)c1c(O)c3c(c(O)c1C2=O)C[C@@](O)(C(=O)CO)C[C@@H]3O[C@H]1C[C@H](N)[C@H](O)[C@H](C)O1 [adriamycin, doxorubicin]
[1]
  repression of stathmin expression: approximately 50%
[2]; 8 hours
  reduction of stathmin RNA levels: approximately 30%
[2]; 12 hours
  repression of stathmin: 50%
[2]; 24 hours
  reduction of stathmin RNA levels: ~75%

Source: patent publication US7053194B2, “Compositions and methods for p53-mediated repression of gene expression” (Fox Chase Cancer Center, priority 1999, dated 2006)
